Experimental data reported in patent US20220169654A1, “New Organic Compounds” (Servier Pharmaceuticals LLC, priority 2020, published 2022).

Legend:
[1] = test system: HCT116 MTAP−/−; assay: Inhibition of cellular proliferation, 4 days, Cell Titer Glo, HCT116 MTAP−/−; assay type: cell-based; conditions: Homo sapiens, HCT-116, 96 h, IC50 bin with Max Inh., read-out: 4 Day Relative Growth Inhibition (MTAP −/−)
Outline: (§1)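 Isogenic HCT116 pair differing only in MTAP status, plated 24 h before treatment with 10-point 3-fold dilutions; 4 days at 37° C./5% CO2. Cell Titer Glo luminescence, blank-subtracted and normalised to 0.2% DMSO control, gives percentage proliferation vs log molar concentration for IC50.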

[2] = test system: SAM in HCT116 human colon carcinoma cell line with MTAP gene deleted (MTAP −/−); assay: Cellular assay of target engagement (SAM), LC-MS/MS, 72 hrs; assay type: cell-based; conditions: HCT-116, IC50 bin with Max Inh., read-out: Cell 72 h SAM Inhibition (MTAP −/−)
Outline: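 MTAP-deleted HCT116 cells plated 24 h, then given 10-point 3-fold dilutions for 72 hrs at 37° C. Intracellular SAM extracted in cold 80% methanol with 1M acetic acid and d3-SAM standard, quantified by LC-MS/MS (MRM m/z 399.2→250.1); IC50 derived.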

[3] = molecular target: T1, MAT2A homodimer (Homo sapiens, UniProt P31153); assay: MAT2A inhibition (biochemical, liberated phosphate, PiColorLock Gold); conditions: recombinant MAT2A homodimer; IC50 bin with Max Inh.; read-out: Enzyme Inhibition Bin
T1 construct: inferred from Ni sepharose purification with imidazole elution; made in house; host or cells: Sf9 insect cells, baculovirus (Bac to Bac, pFASTBAC1)
Outline: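 Baculovirus/Sf9-expressed, Ni-purified MAT2A (4 μg/mL) preincubated with compound 60 min at 25 °C in Tris pH 8.0/KCl/MgCl2 buffer. Reaction started with 500 μM ATP and 400 μM L-methionine (substrate-mix concentrations), run 60 min at 25 °C. Phosphate measured colorimetrically against a phosphate standard curve to give IC50.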

[4] = test system: HCT116 MTAP+/+; assay: Inhibition of cellular proliferation, 4 days, Cell Titer Glo, HCT116 MTAP+/+; assay type: cell-based; conditions: Homo sapiens, HCT-116, 96 h, IC50 bin with Max Inh., read-out: 4 Day Relative Growth Inhibition (MTAP +/+)
Outline: as §1

T1 sequence (P31153 whole entry): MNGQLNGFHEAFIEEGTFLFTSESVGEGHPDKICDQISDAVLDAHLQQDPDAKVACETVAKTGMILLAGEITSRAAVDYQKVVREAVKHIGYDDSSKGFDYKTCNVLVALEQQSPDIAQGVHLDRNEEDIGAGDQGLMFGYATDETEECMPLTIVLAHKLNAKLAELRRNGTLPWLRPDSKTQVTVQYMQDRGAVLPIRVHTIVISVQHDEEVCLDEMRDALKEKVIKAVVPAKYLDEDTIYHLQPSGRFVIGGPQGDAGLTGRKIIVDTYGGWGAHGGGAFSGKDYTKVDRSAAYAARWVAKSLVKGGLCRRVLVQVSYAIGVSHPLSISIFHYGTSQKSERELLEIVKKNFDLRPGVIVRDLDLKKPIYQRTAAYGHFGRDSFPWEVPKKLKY

Row | Structure (SMILES) | IC50 [1] [nM] | IC50 [2] [nM] | IC50 [3] [nM] | IC50 [4] [nM]
1 | Cn1cc2cc(-n3nc4nnn(CC5CC5)c4c(-c4ccc(C5CC5)nc4)c3=O)ccc2n1 [Example 210, 1-(cyclopropylmethyl)-7-(6-cyclopropylpyridin-3-yl)-5-(2-methyl-2H-indazol-5-yl)-1,5-dihydro-6H-[1,2,3]triazolo[4,5-c]pyridazin-6-one] | 100 to 1000 | > 1000 | 100 to 1000 | > 1000
2 | Cc1nn(CC2CC2)c2c(-c3ccc(C4CC4)nc3)c(=O)n(-c3ccc4nn(C)cc4c3)nc12 [Example 211, 1-(cyclopropylmethyl)-7-(6-cyclopropylpyridin-3-yl)-3-methyl-5-(2-methyl-2H-indazol-5-yl)-1H,5H,6H-pyrazolo[4,3-c]pyridazin-6-one] | < 100 | < 100 | < 100 | > 1000
3 | Cc1nn(CC2CC2)c2c(-c3ccc(OC(F)F)cc3)c(=O)n(-c3ccc4nn(C)cc4c3)nc12 [Example 212, 1-(cyclopropylmethyl)-7-(4-(difluoromethoxy)phenyl)-3-methyl-5-(2-methyl-2H-indazol-5-yl)-1,5-dihydro-6H-pyrazolo[4,3-c]pyridazin-6-one] | < 100 | < 100 | < 100 | < 100
4 | Cc1nn(CC2CC2)c2c(-c3ccc(C4CC4)cc3)c(=O)n(-c3ccc4nn(C)cc4c3)nc12 [Example 213, 1-(cyclopropylmethyl)-7-(4-cyclopropylphenyl)-3-methyl-5-(2-methyl-2H-indazol-5-yl)-1,5-dihydro-6H-pyrazolo[4,3-c]pyridazin-6-one] | < 100 | < 100 | < 100 | > 1000
5 | COc1ccc(-c2c(=O)n(-c3ccc4nn(C)cc4c3)nc3c(C)nn(CC4CC4)c23)cc1 [Example 214, 1-(cyclopropylmethyl)-7-(4-methoxyphenyl)-3-methyl-5-(2-methyl-2H-indazol-5-yl)-1,5-dihydro-6H-pyrazolo[4,3-c]pyridazin-6-one] | < 100 | < 100 | < 100 | 100 to 1000
6 | Cc1nn(CC2CC2)c2c(-c3ccc(Cl)cc3)c(=O)n(-c3ccc4nn(C)cc4c3)nc12 [Example 215, 7-(4-chlorophenyl)-1-(cyclopropylmethyl)-3-methyl-5-(2-methyl-2H-indazol-5-yl)-1,5-dihydro-6H-pyrazolo[4,3-c]pyridazin-6-one] | < 100 | < 100 | < 100 | 100 to 1000
7 | [2H]C([2H])([2H])Oc1ccc(-c2c(=O)n(-c3ccc4nn(C)cc4c3)nc3c(C)nn(CC4CC4)c23)cc1 [Example 216, 1-(cyclopropylmethyl)-7-(4-(methoxy-d3)phenyl)-3-methyl-5-(2-methyl-2H-indazol-5-yl)-1,5-dihydro-6H-pyrazolo[4,3-c]pyridazin-6-one] | < 100 | < 100 | < 100 | 100 to 1000
8 | Cc1ccc(-c2c(=O)n(-c3ccc4nn(C)cc4c3)nc3c(C)nn(CC4CC4)c23)cn1 [Example 217, 1-(cyclopropylmethyl)-3-methyl-5-(2-methyl-2H-indazol-5-yl)-7-(6-methylpyridin-3-yl)-1,5-dihydro-6H-pyrazolo[4,3-c]pyridazin-6-one] | < 100 | < 100 | < 100 | > 1000
9 | Cn1cc2cc(-n3nc4cnn(CC5CC5)c4c(-c4ccc(C5CC5)nc4)c3=O)ccc2n1 [Example 219, 1-(cyclopropylmethyl)-7-(6-cyclopropylpyridin-3-yl)-5-(2-methyl-2H-indazol-5-yl)-1,5-dihydro-6H-pyrazolo[4,3-c]pyridazin-6-one] | 100 to 1000 | 100 to 1000 | < 100 | 100 to 1000
10 | [2H]C([2H])([2H])Oc1ccc(-c2c(=O)n(-c3ccc4nn(C)cc4c3)nc3cnn(CC4CC4)c23)cc1 [Example 220, 1-(cyclopropylmethyl)-7-(4-(methoxy-d3)phenyl)-5-(2-methyl-2H-indazol-5-yl)-1,5-dihydro-6H-pyrazolo[4,3-c]pyridazin-6-one] | < 100 | < 100 | < 100 | 100 to 1000
11 | Cn1cc2cc(-n3nc4cnn(CC5CC5)c4c(-c4ccc(Cl)cc4)c3=O)ccc2n1 [Example 221, 7-(4-chlorophenyl)-1-(cyclopropylmethyl)-5-(2-methyl-2H-indazol-5-yl)-1,5-dihydro-6H-pyrazolo[4,3-c]pyridazin-6-one] | < 100 | < 100 | < 100 | 100 to 1000
12 | Cc1ccc(-c2c(=O)n(-c3ccc4nn(C)cc4c3)nc3cnn(CC4CC4)c23)cn1 [Example 222, 1-(cyclopropylmethyl)-5-(2-methyl-2H-indazol-5-yl)-7-(6-methylpyridin-3-yl)-1,5-dihydro-6H-pyrazolo[4,3-c]pyridazin-6-one] | 100 to 1000 | 100 to 1000 | < 100 | > 1000
13 | COC1CC=C(n2nc3ccn(CC4CC4)c3c(-c3ccc(OC(F)F)cc3)c2=O)CC1 (stereo not shown) [Example 230, 5-(cyclopropylmethyl)-4-(4-(difluoromethoxy)phenyl)-2-(4-methoxycyclohex-1-en-1-yl)-2,5-dihydro-3H-pyrrolo[3,2-c]pyridazin-3-one] | 100 to 1000 | 100 to 1000 | < 100 | > 1000

Results, then the molecule that gave them:

Row | IC50 [1] [nM] | IC50 [2] [nM] | IC50 [3] [nM] | IC50 [4] [nM] | Structure (SMILES)
14 | < 100 | < 100 | < 100 | 100 to 1000 | Cn1cc2cc(-n3nc4cnn(CC5CC5)c4c(-c4ccc(OC(F)F)cc4)c3=O)ccc2n1 [Example 218, 1-(cyclopropylmethyl)-7-(4-(difluoromethoxy)phenyl)-5-(2-methyl-2H-indazol-5-yl)-1,5-dihydro-6H-pyrazolo[4,3-c]pyridazin-6-one]
15 | 100 to 1000 | < 100 | < 100 | 100 to 1000 | Cn1cc(-n2nc3ccn(CC4CC4)c3c(-c3ccc(OC(F)F)cc3)c2=O)ccc1=O [Example 223, 5-(cyclopropylmethyl)-4-(4-(difluoromethoxy)phenyl)-2-(1-methyl-6-oxo-1,6-dihydropyridin-3-yl)-2,5-dihydro-3H-pyrrolo[3,2-c]pyridazin-3-one]
16 | < 100 | < 100 | < 100 | 100 to 1000 | O=c1c(-c2ccc(OC(F)F)cc2)c2c(ccn2CC2CC2)nn1-c1ccc2ncsc2c1 [Example 224, 2-(benzo[d]thiazol-6-yl)-5-(cyclopropylmethyl)-4-(4-(difluoromethoxy)phenyl)-2,5-dihydro-3H-pyrrolo[3,2-c]pyridazin-3-one]
17 | < 100 | < 100 | < 100 | 100 to 1000 | O=c1c(-c2ccc(OC(F)F)cc2)c2c(ccn2CC2CC2)nn1-c1ccc2ncccc2c1 [Example 225, 5-(cyclopropylmethyl)-4-(4-(difluoromethoxy)phenyl)-2-(quinolin-6-yl)-2,5-dihydro-3H-pyrrolo[3,2-c]pyridazin-3-one]
18 | < 100 | < 100 | < 100 | 100 to 1000 | O=c1c(-c2ccc(OC(F)F)cc2)c2c(ccn2CC2CC2)nn1-c1ccncc1 [Example 226, 5-(cyclopropylmethyl)-4-(4-(difluoromethoxy)phenyl)-2-(pyridin-4-yl)-2,5-dihydro-3H-pyrrolo[3,2-c]pyridazin-3-one]
19 | < 100 | < 100 | < 100 | 100 to 1000 | CN1CCOc2ccc(-n3nc4ccn(CC5CC5)c4c(-c4ccc(OC(F)F)cc4)c3=O)cc21 [Example 227, 5-(cyclopropylmethyl)-4-(4-(difluoromethoxy)phenyl)-2-(4-methyl-3,4-dihydro-2H-benzo[b][1,4]oxazin-6-yl)-2,5-dihydro-3H-pyrrolo[3,2-c]pyridazin-3-one]
20 | > 1000 | 100 to 1000 | < 100 | > 1000 | Nc1ccc(-n2nc3ccn(CC4CC4)c3c(-c3ccc(OC(F)F)cc3)c2=O)cc1 [Example 228, 2-(4-aminophenyl)-5-(cyclopropylmethyl)-4-(4-(difluoromethoxy)phenyl)-2,5-dihydro-3H-pyrrolo[3,2-c]pyridazin-3-one]
21 | < 100 | < 100 | < 100 | 100 to 1000 | COc1ccc(-n2nc3ccn(CC4CC4)c3c(-c3ccc(OC(F)F)cc3)c2=O)cc1 [Example 229, 5-(cyclopropylmethyl)-4-(4-(difluoromethoxy)phenyl)-2-(4-methoxyphenyl)-2,5-dihydro-3H-pyrrolo[3,2-c]pyridazin-3-one]
22 | 100 to 1000 | 100 to 1000 | < 100 | > 1000 | O=c1c(-c2ccc(OC(F)F)cc2)c2c(ccn2CC2CC2)nn1-c1cn[nH]c1 [Example 231, 5-(cyclopropylmethyl)-4-(4-(difluoromethoxy)phenyl)-2-(1H-pyrazol-4-yl)-2,5-dihydro-3H-pyrrolo[3,2-c]pyridazin-3-one]
